Experimental data published in paper PMC2931832 (ACS medicinal chemistry letters, 2010).

Assays:
CYP2C9 = CYP2C9 (Homo sapiens, UniProt P11712); experiment: cytochrome p450 CYP2C9 inhibition; conditions: 6 µM of compound
H1299 lung tumor cell = experiment: cell culture-based proliferation assay, H1299; conditions: Homo sapiens, NCI-H1299, read-out: IC50 of H1299 tumor cell growth
[1] = system: breast, ovarian and lymphatic leukemia; conditions: cited from earlier work
EGFR = EGFR (Homo sapiens, UniProt P00533); experiment: EGFR kinase activity, fluorescence-based coupled-enzyme assay; assay type: biochemical
Chain of EGFR (P00533 25-1210): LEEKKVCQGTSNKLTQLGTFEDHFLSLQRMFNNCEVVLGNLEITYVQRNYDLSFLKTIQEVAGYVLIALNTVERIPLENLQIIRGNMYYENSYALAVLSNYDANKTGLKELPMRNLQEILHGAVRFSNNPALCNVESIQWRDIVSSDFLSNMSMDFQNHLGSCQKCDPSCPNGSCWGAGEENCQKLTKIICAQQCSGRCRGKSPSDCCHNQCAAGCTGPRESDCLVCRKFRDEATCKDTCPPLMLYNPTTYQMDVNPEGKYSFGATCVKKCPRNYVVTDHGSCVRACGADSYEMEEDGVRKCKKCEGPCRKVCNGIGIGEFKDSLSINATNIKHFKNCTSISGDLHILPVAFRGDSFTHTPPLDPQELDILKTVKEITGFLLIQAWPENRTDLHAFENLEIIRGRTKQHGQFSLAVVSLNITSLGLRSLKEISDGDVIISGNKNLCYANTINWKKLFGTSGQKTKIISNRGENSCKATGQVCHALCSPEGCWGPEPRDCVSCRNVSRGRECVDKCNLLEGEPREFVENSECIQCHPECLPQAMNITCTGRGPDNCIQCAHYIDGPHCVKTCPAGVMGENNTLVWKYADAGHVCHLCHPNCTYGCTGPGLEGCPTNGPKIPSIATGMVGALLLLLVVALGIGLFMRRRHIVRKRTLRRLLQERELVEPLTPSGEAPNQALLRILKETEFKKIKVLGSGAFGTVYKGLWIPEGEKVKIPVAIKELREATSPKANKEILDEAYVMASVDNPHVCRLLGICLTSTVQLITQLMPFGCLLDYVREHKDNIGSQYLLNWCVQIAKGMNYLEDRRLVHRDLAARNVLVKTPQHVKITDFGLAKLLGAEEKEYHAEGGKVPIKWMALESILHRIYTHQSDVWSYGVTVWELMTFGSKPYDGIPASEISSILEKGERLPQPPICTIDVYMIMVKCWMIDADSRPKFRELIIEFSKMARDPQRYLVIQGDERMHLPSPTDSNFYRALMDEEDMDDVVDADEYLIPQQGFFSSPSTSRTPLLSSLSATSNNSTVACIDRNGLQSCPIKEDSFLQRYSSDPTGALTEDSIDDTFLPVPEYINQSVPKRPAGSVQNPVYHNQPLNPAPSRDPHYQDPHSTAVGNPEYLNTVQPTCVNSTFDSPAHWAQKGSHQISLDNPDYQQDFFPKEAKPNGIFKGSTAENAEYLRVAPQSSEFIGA

[2] = target: human Ether-a-go-go Related Gene (hERG) K+ channel (Homo sapiens, UniProt Q12809); experiment: hERG K+ channel binding / blockage; conditions: 6 µM of compound
Chain of human Ether-a-go-go Related Gene (hERG) K+ channel (Q12809 whole entry): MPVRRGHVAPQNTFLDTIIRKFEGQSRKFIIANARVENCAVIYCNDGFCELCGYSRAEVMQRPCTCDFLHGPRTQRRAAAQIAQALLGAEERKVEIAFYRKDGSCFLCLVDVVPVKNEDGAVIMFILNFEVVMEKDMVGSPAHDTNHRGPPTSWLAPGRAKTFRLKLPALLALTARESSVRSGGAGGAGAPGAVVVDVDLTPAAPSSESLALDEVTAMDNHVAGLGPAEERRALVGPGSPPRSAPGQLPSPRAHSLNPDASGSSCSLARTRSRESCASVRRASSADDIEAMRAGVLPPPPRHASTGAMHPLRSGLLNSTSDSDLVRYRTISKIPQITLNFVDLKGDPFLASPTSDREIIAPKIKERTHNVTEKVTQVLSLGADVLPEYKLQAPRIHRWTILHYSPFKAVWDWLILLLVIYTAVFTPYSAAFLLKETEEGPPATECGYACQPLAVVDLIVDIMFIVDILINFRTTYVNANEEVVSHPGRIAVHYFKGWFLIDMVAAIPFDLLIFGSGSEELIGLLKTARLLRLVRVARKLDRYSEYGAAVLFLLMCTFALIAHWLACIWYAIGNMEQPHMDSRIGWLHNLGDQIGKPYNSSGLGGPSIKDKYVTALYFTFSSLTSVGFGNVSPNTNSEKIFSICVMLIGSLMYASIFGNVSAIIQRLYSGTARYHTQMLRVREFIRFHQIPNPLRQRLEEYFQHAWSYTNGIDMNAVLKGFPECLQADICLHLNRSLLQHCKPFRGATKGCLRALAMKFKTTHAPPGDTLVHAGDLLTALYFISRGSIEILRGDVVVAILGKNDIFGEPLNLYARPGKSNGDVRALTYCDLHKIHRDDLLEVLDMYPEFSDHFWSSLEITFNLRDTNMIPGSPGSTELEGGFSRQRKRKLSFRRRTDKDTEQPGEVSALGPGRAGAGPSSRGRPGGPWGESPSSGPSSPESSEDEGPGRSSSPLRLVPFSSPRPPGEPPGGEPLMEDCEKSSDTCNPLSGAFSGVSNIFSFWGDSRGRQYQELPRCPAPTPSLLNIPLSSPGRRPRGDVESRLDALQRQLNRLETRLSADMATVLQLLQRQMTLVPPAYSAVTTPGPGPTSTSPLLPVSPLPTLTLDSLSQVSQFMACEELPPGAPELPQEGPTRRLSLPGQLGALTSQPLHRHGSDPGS

H460 lung tumor cell = experiment: cell culture-based proliferation assay, H460; conditions: Homo sapiens, NCI-H460, read-out: IC50 of H460 tumor cell growth

Chain of CYP2C9 (P11712 whole entry): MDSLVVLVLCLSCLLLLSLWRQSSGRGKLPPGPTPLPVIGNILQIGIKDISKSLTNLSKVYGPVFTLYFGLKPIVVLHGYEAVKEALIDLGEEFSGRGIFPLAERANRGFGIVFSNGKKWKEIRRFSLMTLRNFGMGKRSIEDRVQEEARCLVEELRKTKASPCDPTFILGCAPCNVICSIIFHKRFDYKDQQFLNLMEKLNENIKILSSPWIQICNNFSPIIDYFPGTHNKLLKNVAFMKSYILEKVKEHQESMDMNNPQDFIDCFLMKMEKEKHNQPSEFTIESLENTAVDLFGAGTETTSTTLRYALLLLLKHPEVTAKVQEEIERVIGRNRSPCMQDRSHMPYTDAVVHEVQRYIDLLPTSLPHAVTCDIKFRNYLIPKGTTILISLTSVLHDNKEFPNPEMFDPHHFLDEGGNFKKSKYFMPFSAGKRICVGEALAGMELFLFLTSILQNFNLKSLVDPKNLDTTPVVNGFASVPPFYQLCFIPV

Row | IC50 (H460 lung tumor cell) | SMILES | inhibition of CYP2C9 (in words) (CYP2C9) | IC50 (H1299 lung tumor cell) | efficacy in breast, ovarian and lymphatic leukemia [1] | IC50 (EGFR) | hERG K+ channel blockage (in words) [2]
1 |  | C[C@H]1Oc2cc3c(-c4c(O)cc(O)c5c(O)c6c(cc45)O[C@H](C)[C@@H](C)C6=O)c(O)cc(O)c3c(O)c2C(=O)[C@@H]1C [Compound 12, Chaetochromin A] | significant inhibition | ~1 µM | shown efficacy | 250 nM | significant blockage
2 | ~10 µM | C#Cc1cccc(Nc2ncnc3cc(OCCOC)c(OCCOC)cc23)c1 [erlotinib, reference compound] | little inhibition | ~10 µM |  |  | 
